Measured values taken from patent US20250360187A1, “HEPCIDIN MIMETICS FOR TREATMENT OF SICKLE CELL DISEASE” (Protagonist Therapeutics, Inc., priority 2022, published 2025).
“Also recorded” adds a separate entry of the source. Where a SMILES comes first, the peptide text is derived from it.

Tested on: Townes SCD mice
Assay: Efficacy study of hepcidin mimetics in a mouse model of sickle cell disease (CBC, serum hemolysis biomarkers, spleen and liver weights)
Type: in vivo
Conditions: for % Retics / Abs Retics / HCT / HGB / MCH / MCHC / MCV / RBC / LDH / Total bilirubin: 4 weeks, mean ± SD; for LDH / Total bilirubin: serum
Procedure: Compound 46, a hepcidin mimetic, was administered subcutaneously at 1.0 mg/kg (group 3, N=9) or 2.5 mg/kg (group 4, N=9) in Townes SCD mice. 36 Townes SCD and 6 129S1/SvlmJ (wild-type), female mice, 5 weeks old upon delivery. A control group of wild-type mice (groups 1, N=6) was treated with vehicle as well as another SCD mice (group 2, N=9). All mice were dosed three times per week (TIW). All mice were maintained on an iron-adjusted diet (TD.140258, 35 ppm iron) throughout the study. Collections and necropsies were performed 24 hours post-last dose of compound or vehicle. After 4 weeks on study, animals from each group were euthanized, EDTA whole blood collected for CBC and serum was collected for hemolysis biomarker analysis. Spleens and livers were weighed at terminus. Liver, spleen, kidney, heart and brain were collected for future analysis. Serum and urine were collected to analyze chemistry markers, such as bilirubin, LDH (lactate dehydrogenase), haptoglobin, urine creatinine, urine total protein and urine urea nitrogen.
As shown in FIG. 4A and FIG. 4B, reticulocytes were counted both with the automated analyzer as well as manually from a new methylene blue stained blood smear by counting the number of positive stained cells encountered in 500 erythrocytes and calculating the percentage.

[1] = SCD mice, compared to vehicle, across doses
[2] = Townes SCD mice, Dose 1 (1.0 mg/kg s.c. TIW)
[3] = Townes SCD mice, Dose 2.5 (2.5 mg/kg s.c. TIW)

CCCCCCCCCCCCCCCC(=O)N[C@@H](CCC(=O)NCCCC[C@@H]1NC(=O)[C@H]([C@@H](C)CC)NC(=O)[C@@H](NC(=O)[C@@H]2CCCN2C(=O)[C@H](Cc2ccccc2)NC(=O)[C@H](Cc2cnc[nH]2)NC(=O)[C@@H](NC(=O)[C@H](CCC(=O)O)NC(=O)CC(C)C)[C@@H](C)O)CSSC[C@@H](C(=O)N[C@@H](CCCCN)C(N)=O)NC(=O)CNC(=O)[C@H](CCCCN)NC(=O)[C@H](CO)NC(=O)[C@H](CCCNC(=N)N)NC(=O)[C@@H]2CCCN2C(=O)[C@H](CCC(=O)O)NC(=O)[C@H](Cc2ccccc2)NC1=O)C(=O)O [Compound 46, Isovaleric_Acid-ETHFPCI(K(IsoGlu_Palm))FEPRSKGCK-NH2] (HELM PEPTIDE1{[CC(C)CC(=O)[*:2]].E.T.H.F.P.C.I.K.F.E.P.R.S.K.G.C.K.[am]}|PEPTIDE2{[CCCCCCCCCCCCCCCC(=O)[*:2]].[gGlu]}$PEPTIDE1,PEPTIDE2,9:R3-2:R2|PEPTIDE1,PEPTIDE1,7:R3-17:R3$$$V2.0)
RBC count (in words) (SCD mice, 2.5 mg/kg dose): significantly reduced | Percent of reticulocytes (in words) (SCD mice, 2.5 mg/kg dose, compared to vehicle control): decreased percent of reticulocytes significantly | Mean corpuscular hemoglobin concentration (MCHC) (in words) (SCD mice, 2.5 mg/kg, compared to vehicle control): significant increase in MCHC | Hematocrit (HCT) (in words) (SCD mice, across doses): significant reduction of HCT in a dose dependent manner | Lymphocyte count (in words) (SCD mice, across doses): significant WBC and lymphocyte reduction in a dose dependent manner; also recorded: alleviated elevated white blood cell (WBC) and lymphocytes counts | Neutrophil count (in words) (SCD mice, across doses): significantly decreased neutrophil count in a dose dependent manner; also recorded: alleviated elevated neutrophil and monocyte counts | Serum lactate dehydrogenase (LDH) (in words) (SCD mice, across doses): significantly reduced both parameters in a dose dependent manner | Serum total bilirubin (in words) (SCD mice, across doses): significantly reduced both parameters in a dose dependent manner | White blood cell (WBC) count (in words) (SCD mice, across doses): significant WBC and lymphocyte reduction in a dose dependent manner; also recorded: alleviated elevated white blood cell (WBC) and lymphocytes counts | Mean corpuscular volume (MCV) (in words) (SCD mice, across doses, compared to the vehicle group): significant reduction of MCV in a dose dependent manner | Hgb level (in words) (SCD mice, all three dose groups): significantly reduced in all three dose groups | Mean corpuscular hemoglobin (MCH) (in words) (SCD mice, compared to vehicle control): significant reduction in MCH | Liver to body weight ratios (in words) [1]: significantly lower in a dose dependent manner | Liver weight / liver size (in words) [1]: significantly lower in a dose dependent manner; also recorded: reduces liver size | Spleen to body weight ratios (in words) [1]: significantly and dose-dependently lower | Spleen weights / spleen size (in words) [1]: significantly and dose-dependently lower; also recorded: reduces spleen size | Monocyte count (in words) (Townes SCD mice): alleviated elevated neutrophil and monocyte counts | % Retics [2]: 65.78% | Abs Retics [2]: 2612 K/uL | HCT [2]: 29.62% | HGB [2]: 5.89 g/dL | MCH [2]: 9.89 pg | MCHC [2]: 19.82 g/dL | MCV [2]: 50.11 fL | RBC [2]: 5.94 M/uL | % Retics [3]: 50.33% | Abs Retics [3]: 1195 K/uL | HCT [3]: 16.27% | HGB [3]: 4.39 g/dL | MCH [3]: 9.82 pg | MCHC [3]: 23.22 g/dL | MCV [3]: 42.56 fL | RBC [3]: 4.49 M/uL | LDH [2]: 610.6 U/L | Total bilirubin [2]: 2.16 mg/dL | LDH [3]: 372.3 U/L | Total bilirubin [3]: 1.13 mg/dL
